{"source": "patent US7253177B2", "about": "“Synthesis and antimalarial activity of pyrrolo[3,2-f]quinazoline-1,3-diamine derivatives” (United States of America as Represented by the Secretary of …, priority 2004, dated 2007)", "key": {"[1]": {"test_system": "Plasmodium falciparum D-6 clone (CDC Sierra Leone I)", "assay": "In vitro antimalarial study, [3H]hypoxanthine uptake, D-6 clone", "format": "cell-based", "protocol": "B. Antimalarial Activities: (a). In Vitro Antimalarial Studies. The in vitro assays were conducted by using a modification of the semiautomated microdilution technique of Desjardins et al and Chulay et al.. Four P. falciparum malaria parasite clones, from CDC Indochina III (W-2), CDC Sierra Leone I (D-6), Southeast Asia Isolates (TM91C235) and RCS (Isolates from Brazil) were utilized in susceptibility testing. They were derived by direct visualization and micromanipulation from patient isolates. The W-2 clone is susceptible to mefloquine but resistant to chloroquine, sulfadoxine, pyrimethamine, and quinine, whereas the D-6 clone is naturally resistant to mefloquine but susceptible to chloroquine, sulfadoxine, pyrimethamine and quinine. Test compounds were initially dissolved in DMSO and diluted 400 fold in RPMI 1640 culture medium supplemented with 25 mM Hepes, 32 mM NaHCO3 and 10% Albumax I (Gibco BRL, Grand Island, N.Y.). These solutions were subsequently serially diluted two-fold with a Biomek 1000 (Beckman, Fullerton, Calif.) over 11 different concentrations. The parasites were exposed to serial dilutions of each compound for 48 hrs and incubated at 37° C. with 5% O2, 5% CO2 and 90% N2 prior to the addition of [^3H]hypoxanthine. After a further incubation of 18 hrs, parasite DNA was harvested from each microtiter well using Packard Filtermate 196 Harvester (Meriden, Conn.) onto glass filters. Uptake of [^3H]hypoxanthine was measured with a Packard Topcount Scintillation. Concentration-response data were analyzed by a non-linear regression logistic dose response model and the IC50 values (50% inhibitory concentrations) for each compound were calculated. (Table 3). (b). In Vivo Antimalarial Studies against P. berghei in mice: The in vivo efficacy of the artelinic acid analogs were determined in a modified Thompson test. This test measures the survivability of mice and parasitemia clearance following administration of drug on days 3-5 post infection. In brief, 5×10^6 P. berghei-infected erythrocytes (KBG-173 strain) were inoculated intraperitoneally to female mice that weighed 24-30 g. By day three post-infection, parasitemia ranged from 1.0-3.7%. Each drug, dissolved in 5% sodium bicarbonate, was administered PO twice daily from day 3-5 post-infection. Total doses for each drug ranged from 1.5-384 mg/kg with 8 mice included in each dosage group. The percent suppression of parasitemia in the treated mice compared to the untreated controls was determined for each test compound; the SD-50 (fifty percent suppression dose) and SD-90 were determined from a non-linear regression logistic dose response fit at day 6 parasitemia data. Survival of mice to day 60 post-infection was considered a cure (C). Compounds were considered active (A) when the survival time of the treated mice was greater than twice the control mice, i.e., 12-14 day (Table 4-5). (c). Sporozoite Induced Test Each compound is ground with a mortar & pestle and suspended in 0.5% hydroxyethylcellulose—0.1% Tween 80 for compounds to be administered PO and those given SC are suspended in peanut oil. Each compound is prepared at 3 different dose levels as requested by WRAIR. Compounds are administered either PO or SC to mice once 4 hr before inoculation of sporozoites. Four-week-old male CD-1 mice, purchased from Charles River and weighing 16-17 g, are placed 5 per cage and allowed to acclimate for 4 days before being treated and then inoculated with sporozoites. They are fed food and water ad-lib and maintained at 76° F. with 12 hr light and 12 hr darkness. The cages and water bottles are changed biweekly. The mice are weighed on Days 0, 3 and 6 then biweekly when blood films are taken. Plasmodium yoelii (17×) is used to infect mice that will be used to infect the mosquitoes. Mice are given a single dose of test compound 4 hr before being inoculated intraperitoneally with 2.5×10^5 sporozoites of Plasmodium yoelii on Day 0. […]"}, "P. falciparum FVO": {"test_system": "P. falciparum FVO", "assay": "Antimalarial activity against P. falciparum in Aotus monkey", "format": "in vivo, Plasmodium falciparum", "conditions": "1 mg/kg once a day x three days, cured = parasitemia free for 100 days post treatment", "protocol": "(e). Toxicity Study in Aotus monkey: Protocol: Two malaria double cured Aotus weighing 1027-695 grams respectively received single dose of 3 mg/kg orally of the two compounds 2b and 3e. The monkeys were weighed and pre-bleed for CBC and Chemistry (ALT, BUN, Creatinine) determination, and again three, seven and 15 days post treatment. Signs of toxicity such as anorexia, vomiting, diarrhea or behavior changes were recorded. […] (f). Antimalarial Activity against P. falciparum in Aotus monkey: Protocol: Six (6) malaria naive Aotus lemurinus lemurinus (weigh 787-978 grms) were divided into two groups of two Aotus each plus two controls (MN13177 male and MN 13153 male) and infected with 5×10^6 P. falciparum FVO malaria parasites with 1 ml of an appropriate dilution in RPMI media intravenously on the saphenous vein. When their parasitemia reached 5×10^4 parasites/ul, treatment was started. Giemsa-stained thick blood smears were prepared daily with a prick in the ear marginal vein and parasites enumerated by the Earle and Perez method. Group 1 Aotus received 3e at 1 mg/kg once a day×three days. Group 2 Aotus received 2b at 1 mg/kg once a day×three days. The monkeys were weight and pre-bled for CBC and Chemistry (ALT, BUN, Creatinine) determination, and on day 4 post-treatmetne (PT). Bleedings for Pk determinations were carried out on day 1 PT at time 0, 1 hr, 7:30 hr and 24 hr PT. […]"}}, "data": [{"molecule": "CC(=O)N(C(C)=O)c1nc(N(C(C)=O)C(C)=O)c2c(ccc3c2ccn3Cc2ccccc2C(F)(F)F)n1", "note": "[Compound 3e, 1,3-Bis(diacetylamino)-7-(2-trifluoromethyl)benzyl-7H-pyrrolo[3,2-f]quinazoline]", "values": [{"measurement": "IC50", "setting": "[1]; Plasmodium falciparum, read-out: IC50 D-6", "result": 0.0236, "unit": "ng/mL"}, {"measurement": "# Monkey Cured/# Monkey Used, P. falciparum", "setting": "P. falciparum FVO", "result": "2/2"}]}, {"molecule": "CCOC(=O)Nc1nc(NC(=O)OCC)c2c(ccc3c2ccn3Cc2ccccc2C(F)(F)F)n1", "note": "[Compound 2b]", "values": [{"measurement": "IC50 D-6", "setting": "[1]; P. falciparum D-6 clone", "result": 7.9727, "unit": "ng/mL"}, {"measurement": "# Monkey Cured/# Monkey Used, P. falciparum", "setting": "P. falciparum FVO", "result": "2/2"}]}]}
